# Source: patent US20050014846A1, “Ambroxol for the treatment of tinnitus” (Boehringer Ingelheim International GmbH, priority 2003, published 2005)
# Columns and labels:
# human GluR1/2 receptors = target: T1, human GluR1/2 receptors (Homo sapiens, UniProt P42261+P42262); experiment: Patch-clamp of glutamate-induced membrane currents in HEK 293 cells expressing GluR1/2; format: cell-based; settings: recombinant human GluR1/2, 1 mM glutamate for 1 s at holding potential −80 mV
# T1 construct: expressed in transfected cells; host or cells: HEK 293
# Description: Ionotropic glutamate receptors of the AMPA subtype are also essential for the excitatory neurotransmission. […] HEK 293 cells which expressed functionally recombinant human GluR1/2 receptors were electrophysiologically investigated by the Patch-Clamp method ([…]). The administration of 1 mM glutamate (for 1 s at a holding potential of −80 mV) induced membrane currents which were inhibited by the joint administration of ambroxol.
# [1] = system: centrally expressed neuronal sodium channels; settings: neuronal sodium channel subtypes, Weiser and Wilson, Mol. Pharmacol. 62, 433-438, 2002, read-out: half-maximum inhibition of centrally expressed channels; cited from earlier work
# T1 sequence (P42261 19-906): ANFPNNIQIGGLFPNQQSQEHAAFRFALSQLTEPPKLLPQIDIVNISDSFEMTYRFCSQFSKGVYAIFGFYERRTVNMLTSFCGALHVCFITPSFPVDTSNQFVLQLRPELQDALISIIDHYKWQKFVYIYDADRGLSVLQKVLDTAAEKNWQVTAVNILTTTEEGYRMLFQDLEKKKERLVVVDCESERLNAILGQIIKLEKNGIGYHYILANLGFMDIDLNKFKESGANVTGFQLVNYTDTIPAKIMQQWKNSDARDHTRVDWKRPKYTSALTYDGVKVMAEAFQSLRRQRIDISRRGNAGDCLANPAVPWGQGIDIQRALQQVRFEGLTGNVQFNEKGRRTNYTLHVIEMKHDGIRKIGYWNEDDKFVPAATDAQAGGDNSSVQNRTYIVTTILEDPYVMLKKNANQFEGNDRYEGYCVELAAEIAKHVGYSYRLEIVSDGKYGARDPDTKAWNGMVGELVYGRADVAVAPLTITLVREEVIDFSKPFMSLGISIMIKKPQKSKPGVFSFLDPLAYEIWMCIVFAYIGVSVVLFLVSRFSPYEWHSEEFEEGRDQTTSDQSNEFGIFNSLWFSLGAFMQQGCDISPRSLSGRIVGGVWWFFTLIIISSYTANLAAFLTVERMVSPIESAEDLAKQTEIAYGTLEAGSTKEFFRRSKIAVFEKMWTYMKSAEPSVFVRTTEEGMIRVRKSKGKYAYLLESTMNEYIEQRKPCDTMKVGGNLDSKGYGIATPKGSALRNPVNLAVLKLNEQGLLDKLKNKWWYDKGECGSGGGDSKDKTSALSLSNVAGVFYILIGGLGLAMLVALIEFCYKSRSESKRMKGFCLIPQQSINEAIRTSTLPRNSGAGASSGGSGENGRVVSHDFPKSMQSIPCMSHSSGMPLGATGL
# T1 sequence (P42262 22-883 limits assumed): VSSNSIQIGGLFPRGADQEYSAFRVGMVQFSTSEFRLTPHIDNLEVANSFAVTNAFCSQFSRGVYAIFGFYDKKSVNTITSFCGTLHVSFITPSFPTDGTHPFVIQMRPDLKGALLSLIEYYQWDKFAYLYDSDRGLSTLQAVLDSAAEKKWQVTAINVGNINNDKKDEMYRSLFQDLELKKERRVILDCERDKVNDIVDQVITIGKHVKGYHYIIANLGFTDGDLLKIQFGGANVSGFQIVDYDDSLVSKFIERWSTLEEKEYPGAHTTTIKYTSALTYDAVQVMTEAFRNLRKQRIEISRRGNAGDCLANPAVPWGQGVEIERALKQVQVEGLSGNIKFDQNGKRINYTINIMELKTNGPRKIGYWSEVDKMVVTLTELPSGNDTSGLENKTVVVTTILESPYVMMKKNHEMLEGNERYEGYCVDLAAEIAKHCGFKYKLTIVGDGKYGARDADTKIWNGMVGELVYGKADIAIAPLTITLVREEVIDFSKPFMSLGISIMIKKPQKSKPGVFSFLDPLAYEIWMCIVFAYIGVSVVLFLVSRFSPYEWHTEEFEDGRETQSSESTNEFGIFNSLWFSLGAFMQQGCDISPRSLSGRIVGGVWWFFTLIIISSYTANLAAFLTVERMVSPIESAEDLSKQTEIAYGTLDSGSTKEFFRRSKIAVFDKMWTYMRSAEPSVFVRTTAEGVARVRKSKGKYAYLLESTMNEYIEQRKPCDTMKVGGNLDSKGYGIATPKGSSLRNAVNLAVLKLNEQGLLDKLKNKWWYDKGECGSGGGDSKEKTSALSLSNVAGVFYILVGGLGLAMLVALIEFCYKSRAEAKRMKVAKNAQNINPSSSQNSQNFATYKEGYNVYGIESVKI
smiles,measurement,setting,value
"Nc1c(Br)cc(Br)cc1CN[C@H]1CC[C@H](O)CC1 [ambroxol, trans-4-(2-amino-3,5-dibromobenzylamino)cyclohexanol]",concentrations inhibiting glutamate-induced membrane currents,human GluR1/2 receptors,30 to 1000 µM
same,IC50,[1],111 µM
